Reference: ChEMBL document CHEMBL1129469, “Nonpeptide angiotensin II receptor antagonists: the next generation in antihypertensive therapy” (J Med Chem, 1996)
Numbering of substitutions follows the chain as printed. Values belong to the molecule of their own block, whether it stands above or below them.

Experiments:
Oryctolagus cuniculus [1] = species: Oryctolagus cuniculus; test: Inhibitory activity against angiotensin II type 1 induced contractions in rabbit aorta; type: functional
[2] = biological target: T1, Angiotensin II receptor (AT-1) type-1 (Rattus norvegicus, UniProt P29089+P25095); test: Inhibitory activity against Angiotensin II receptor, type 1 in rat aortic membrane; type: cell membranes
T1 sequence (P29089 whole entry): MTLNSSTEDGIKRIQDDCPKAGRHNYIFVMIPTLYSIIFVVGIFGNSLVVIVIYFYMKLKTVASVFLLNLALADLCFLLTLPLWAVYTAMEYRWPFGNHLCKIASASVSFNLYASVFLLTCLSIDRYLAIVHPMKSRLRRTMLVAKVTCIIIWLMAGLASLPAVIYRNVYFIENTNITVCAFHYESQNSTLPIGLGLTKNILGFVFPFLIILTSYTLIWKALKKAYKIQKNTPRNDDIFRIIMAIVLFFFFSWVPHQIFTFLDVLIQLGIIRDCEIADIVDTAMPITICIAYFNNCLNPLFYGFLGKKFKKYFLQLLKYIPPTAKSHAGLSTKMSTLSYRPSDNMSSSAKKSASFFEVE
T1 sequence (P25095 whole entry): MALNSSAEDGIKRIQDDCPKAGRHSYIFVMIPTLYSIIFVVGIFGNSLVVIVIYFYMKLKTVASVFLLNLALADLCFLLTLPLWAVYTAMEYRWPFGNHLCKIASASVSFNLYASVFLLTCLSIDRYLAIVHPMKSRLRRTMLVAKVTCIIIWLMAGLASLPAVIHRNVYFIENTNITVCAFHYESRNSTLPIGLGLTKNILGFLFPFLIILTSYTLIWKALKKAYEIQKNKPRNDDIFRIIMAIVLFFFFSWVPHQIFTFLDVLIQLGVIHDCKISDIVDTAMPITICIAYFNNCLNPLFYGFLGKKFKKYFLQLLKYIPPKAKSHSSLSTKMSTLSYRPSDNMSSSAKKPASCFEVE

[3] = biological target: T2, Type-1 angiotensin II receptor (Cavia porcellus, UniProt Q9WV26); test: In vitro antagonistic potency against Angiotensin II receptor, type 1 in guinea pig adrenal membrane; type: functional, cell membranes
T2 sequence (Q9WV26 whole entry): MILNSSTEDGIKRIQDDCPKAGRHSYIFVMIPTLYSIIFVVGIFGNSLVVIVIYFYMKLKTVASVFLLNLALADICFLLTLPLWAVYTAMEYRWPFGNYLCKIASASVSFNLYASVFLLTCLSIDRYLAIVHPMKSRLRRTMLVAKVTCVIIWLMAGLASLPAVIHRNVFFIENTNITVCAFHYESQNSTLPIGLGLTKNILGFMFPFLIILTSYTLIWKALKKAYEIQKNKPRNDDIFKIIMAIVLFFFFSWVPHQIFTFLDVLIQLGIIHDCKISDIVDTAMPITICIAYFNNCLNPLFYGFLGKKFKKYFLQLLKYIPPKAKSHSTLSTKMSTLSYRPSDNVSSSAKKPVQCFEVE

Rattus norvegicus [4] = test: Effective dose required for inhibition of Ang II-induced pressor response in conscious rats; type: functional
Rattus norvegicus [5] = test: Percent inhibition was evaluated to inhibit Ang II pressor response in conscious rats at oral dose 1 mg/kg; type: functional
Rattus norvegicus [6] = species: Rattus norvegicus; test: Effective dose required for lowering blood pressure in renal hypertensive rats (RHR); type: functional
Rattus norvegicus [7] = test: Oral effective dose required for inhibition of Ang II pressor response in conscious rat; type: functional
Canis familiaris = test: Oral effective dose required for inhibition of Ang II pressor response in conscious dog; type: functional; settings: Canis lupus familiaris
Rhesus monkey = test: Oral effective dose required for inhibition of Ang II pressor response in conscious rhesus monkey; type: functional, Cercopithecidae; settings: Macaca mulatta
Oryctolagus cuniculus [8] = species: Oryctolagus cuniculus; test: Compound was tested for its antagonistic activity against angiotensin II-induced contractions in rabbit aorta; type: functional
[9] = biological target: T1, Angiotensin II receptor (AT-1) type-1; test: Binding affinity was evaluated towards Angiotensin II receptor, type 1 in rat adrenal membrane; type: cell membranes
[10] = biological target: T3, Type-1 angiotensin II receptor (Oryctolagus cuniculus, UniProt P34976); test: Inhibitory activity was evaluated against angiotensin II type 1 rabbit aorta; type: tissue-based
T3 sequence (P34976 whole entry): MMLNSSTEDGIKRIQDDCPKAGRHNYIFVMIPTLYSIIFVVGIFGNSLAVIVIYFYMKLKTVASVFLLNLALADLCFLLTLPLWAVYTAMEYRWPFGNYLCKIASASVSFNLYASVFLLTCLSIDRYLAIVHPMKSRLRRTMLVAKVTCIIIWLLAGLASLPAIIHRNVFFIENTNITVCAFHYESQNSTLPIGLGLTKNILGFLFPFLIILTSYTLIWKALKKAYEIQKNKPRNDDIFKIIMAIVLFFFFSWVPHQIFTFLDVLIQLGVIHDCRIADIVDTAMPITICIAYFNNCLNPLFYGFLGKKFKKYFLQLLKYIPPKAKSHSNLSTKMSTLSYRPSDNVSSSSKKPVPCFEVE

Rattus norvegicus [11] = test: Intravenous effective dose against Ang II-induced pressor responses in conscious rats; type: functional
[12] = biological target: T1, Angiotensin II receptor (AT-1) type-1; test: In vitro antagonistic potency against Angiotensin II receptor, type 1 in rat adrenal cortex; type: functional, tissue-based
[13] = biological target: T4, Type-1 angiotensin II receptor (Homo sapiens, UniProt P30556); test: Ki value was evaluated against Angiotensin II receptor, type 1
T4 sequence (P30556 whole entry): T3 sequence (P34976 whole entry) with M2I, A49V, V254I, V270I, H272R, K311R, S349T, V353A

Rattus norvegicus [14] = test: Intravenous effective dose required for lowering blood pressure in renal hypertensive rats (RHR); type: functional
[15] = biological target: T5, Type-2 angiotensin II receptor (Homo sapiens, UniProt P50052); test: Ki value was evaluated against Angiotensin II receptor, type 2
T5 sequence (P50052 whole entry): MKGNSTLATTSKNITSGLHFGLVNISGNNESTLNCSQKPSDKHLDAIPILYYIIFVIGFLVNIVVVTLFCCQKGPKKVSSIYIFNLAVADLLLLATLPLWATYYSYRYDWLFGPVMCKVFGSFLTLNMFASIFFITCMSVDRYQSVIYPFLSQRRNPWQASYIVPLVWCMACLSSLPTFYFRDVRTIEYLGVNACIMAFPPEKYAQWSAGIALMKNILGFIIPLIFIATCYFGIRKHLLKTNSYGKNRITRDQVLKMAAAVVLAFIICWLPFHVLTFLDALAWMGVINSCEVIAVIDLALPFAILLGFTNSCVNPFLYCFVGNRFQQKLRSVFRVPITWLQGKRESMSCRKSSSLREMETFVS

[16] = biological target: T5, Type-2 angiotensin II receptor; test: Inhibition of Angiotensin II receptor, type 2
Rattus norvegicus [17] = test: Percent inhibition was evaluated against Ang II pressor in rats at dose 3 mg/kg, by oral administration; type: functional
[18] = biological target: T4, Type-1 angiotensin II receptor; test: Inhibition of Angiotensin II receptor, type 1

Structure (SMILES): CCCCc1nc2ccc(NC(=O)N(C)C(C)C)cc2c(=O)n1Cc1ccc(-c2ccccc2-c2nn[nH]n2)cc1
inhibition in vivo at 1 mg/kg (Rattus norvegicus [5]): 84%

Structure (SMILES): CCCCc1nc(Cl)c(CC(=O)OC)n1Cc1ccc(NC(=O)c2ccccc2C(=O)O)cc1
ED30 (Rattus norvegicus [6]): 11 mg/kg

Structure (SMILES): CCc1nc2c(C)cc(C)nc2n1Cc1ccc(-c2ccccc2S(=O)(=O)NC(=O)c2ccccc2)cc1
ED50 (Rattus norvegicus [7]): 0.067 mg/kg
ED50 (Canis familiaris): 0.035 mg/kg
ED50 (Rhesus monkey): 0.1 mg/kg

Structure (SMILES): CCCc1nc(C)n2[nH]c(=O)nc2c1Cc1ccc(-c2ccccc2-c2nnn[nH]2)cc1
Kb (Oryctolagus cuniculus [8]): 0.29 nM
Ki [9]: 24 nM

Structure (SMILES): CCc1nc2c(CC)cn(Cc3ccc(-c4ccccc4-c4nn[nH]n4)cc3)n2n1
IC50 [10]: 1.7 nM

Structure (SMILES): CCCCCN(Cc1ccc(-c2ccccc2-c2nn[nH]n2)cc1)C(=O)N1CCN(C(=O)N(c2ccccc2)c2ccccc2)[C@H](C(=O)O)C1
IC50 [16]: 180 nM
inhibition in vivo at 3 mg/kg (Rattus norvegicus [17]): 80%
IC50 [18]: 15 nM

Further lines, with some results ahead:

IC50 (Oryctolagus cuniculus [1]): 0.3 nM
Structure (SMILES): CCOc1nc2cccc(C(=O)O)c2n1Cc1ccc(-c2ccccc2-c2nnn[nH]2)cc1

IC50 [2]: 2.7 nM
Structure (SMILES): CCCCC(=O)N(Cc1ccc(-c2ccccc2-c2nnn[nH]2)cc1)[C@H](C(=O)O)C(C)C

IC50 [3]: 3.8 nM
Structure (SMILES): CCc1cc2c(c(CC)n1)CCC(=O)N2Cc1ccc(-c2ccccc2-c2nnn[nH]2)cc1
ED50 (Rattus norvegicus [4]): 0.19 mg/kg

IC50 [3]: 30 nM
Structure (SMILES): CCc1cc(OCc2ccc(-c3ccccc3-c3nnn[nH]3)cc2)c2ccccc2n1

Ki [12]: 800 nM
Structure (SMILES): CCCCc1nc(Cl)c(C(=O)O)n1Cc1cccc2c1ccn2-c1ccccc1-c1nn[nH]n1
Kb (Oryctolagus cuniculus [8]): 0.068 nM
ED50 (Rattus norvegicus [11]): 0.22 µmol/kg

Ki [13]: 20 nM
Ki [15]: 730 nM
Structure (SMILES): CCCCCN(C(=O)NC)c1ccc2nc(CCCC)n(Cc3ccc(NC(=O)c4c(Cl)ccc(Cl)c4C(=O)O)cc3)c2c1
ED30 (Rattus norvegicus [14]): 2 mg/kg
